In ChEMBL document CHEMBL4610078, “Bioactive Azepine-Indole Alkaloids from Psychotria nemorosa” (J Nat Prod, 2020):
The source made the active and inactive calls. The calls are words filed in the database; no cut-off is given here.

What was measured:
[1] = molecular target: Acetylcholinesterase (Electrophorus electricus) (UniProt O42275); test: Inhibition of electric eel AchE using acetylthiocholine as substrate at 10 uM measured for 6 mins by Ellman's method
[2] = molecular target: T1, Amine oxidase [flavin-containing] A (Homo sapiens, UniProt P21397)
T1 sequence (P21397 whole entry): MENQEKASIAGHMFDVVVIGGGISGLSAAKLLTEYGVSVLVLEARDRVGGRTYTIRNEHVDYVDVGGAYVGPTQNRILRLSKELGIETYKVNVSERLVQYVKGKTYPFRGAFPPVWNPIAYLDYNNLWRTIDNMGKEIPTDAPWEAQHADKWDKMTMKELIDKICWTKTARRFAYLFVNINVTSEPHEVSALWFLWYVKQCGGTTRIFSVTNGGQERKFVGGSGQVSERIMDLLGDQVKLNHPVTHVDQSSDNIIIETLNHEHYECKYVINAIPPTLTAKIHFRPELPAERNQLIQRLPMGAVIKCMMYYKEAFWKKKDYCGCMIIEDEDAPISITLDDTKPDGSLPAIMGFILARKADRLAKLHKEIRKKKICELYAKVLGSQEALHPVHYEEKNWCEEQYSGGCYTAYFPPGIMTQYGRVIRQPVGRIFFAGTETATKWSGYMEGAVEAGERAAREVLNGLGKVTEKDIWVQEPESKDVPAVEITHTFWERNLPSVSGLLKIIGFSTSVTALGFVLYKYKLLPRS
Description: Inhibition of recombinant human MAO-A incubated for 30 mins by fluorescence-based method

[3] = molecular target: Cholinesterase (Equus caballus) (UniProt P81908); test: Inhibition of equine serum BChE using (S)-butyrylthiocholine iodide as substrate at 10 uM measured for 6 mins by Ellman's method
[4] = molecular target: T2, Amine oxidase [flavin-containing] B (Homo sapiens, UniProt P27338); details: 0.5 h, read-out: INH
T2 sequence (P27338 whole entry): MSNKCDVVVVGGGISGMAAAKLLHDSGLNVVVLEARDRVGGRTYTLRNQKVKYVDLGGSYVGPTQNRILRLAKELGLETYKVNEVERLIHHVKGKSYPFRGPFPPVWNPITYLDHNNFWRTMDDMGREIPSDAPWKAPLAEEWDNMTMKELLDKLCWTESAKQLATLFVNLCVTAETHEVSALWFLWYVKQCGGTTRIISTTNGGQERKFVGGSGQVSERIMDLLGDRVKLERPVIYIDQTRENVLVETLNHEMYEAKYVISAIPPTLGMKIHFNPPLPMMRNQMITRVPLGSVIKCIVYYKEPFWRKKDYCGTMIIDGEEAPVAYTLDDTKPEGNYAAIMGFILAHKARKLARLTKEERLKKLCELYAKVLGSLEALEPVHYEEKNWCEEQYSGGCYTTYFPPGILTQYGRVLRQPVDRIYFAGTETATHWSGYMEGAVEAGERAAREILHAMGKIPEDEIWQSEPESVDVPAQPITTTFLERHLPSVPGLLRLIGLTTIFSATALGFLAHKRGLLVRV
Description: Inhibition of recombinant human MAO-B at 10 uM incubated for 30 mins by fluorescence-based method

Acetylcholinesterase (Electrophorus electricus), sequence (O42275 24-633 limits assumed): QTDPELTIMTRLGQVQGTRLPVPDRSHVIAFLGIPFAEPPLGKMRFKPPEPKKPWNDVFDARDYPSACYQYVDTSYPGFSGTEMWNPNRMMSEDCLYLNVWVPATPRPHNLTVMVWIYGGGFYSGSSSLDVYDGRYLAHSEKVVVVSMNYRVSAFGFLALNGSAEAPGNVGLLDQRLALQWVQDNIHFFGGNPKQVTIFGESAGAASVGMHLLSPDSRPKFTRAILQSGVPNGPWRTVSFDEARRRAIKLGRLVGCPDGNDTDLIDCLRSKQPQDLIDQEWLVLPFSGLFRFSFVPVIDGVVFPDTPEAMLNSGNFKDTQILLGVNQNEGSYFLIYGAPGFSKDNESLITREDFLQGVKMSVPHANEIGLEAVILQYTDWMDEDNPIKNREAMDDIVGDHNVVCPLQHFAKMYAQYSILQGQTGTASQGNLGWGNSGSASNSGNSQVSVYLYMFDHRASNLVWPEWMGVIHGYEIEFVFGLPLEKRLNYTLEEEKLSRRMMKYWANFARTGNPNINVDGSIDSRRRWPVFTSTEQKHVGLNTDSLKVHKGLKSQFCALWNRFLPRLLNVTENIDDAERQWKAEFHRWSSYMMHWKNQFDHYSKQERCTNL
Cholinesterase (Equus caballus), sequence (P81908 whole entry): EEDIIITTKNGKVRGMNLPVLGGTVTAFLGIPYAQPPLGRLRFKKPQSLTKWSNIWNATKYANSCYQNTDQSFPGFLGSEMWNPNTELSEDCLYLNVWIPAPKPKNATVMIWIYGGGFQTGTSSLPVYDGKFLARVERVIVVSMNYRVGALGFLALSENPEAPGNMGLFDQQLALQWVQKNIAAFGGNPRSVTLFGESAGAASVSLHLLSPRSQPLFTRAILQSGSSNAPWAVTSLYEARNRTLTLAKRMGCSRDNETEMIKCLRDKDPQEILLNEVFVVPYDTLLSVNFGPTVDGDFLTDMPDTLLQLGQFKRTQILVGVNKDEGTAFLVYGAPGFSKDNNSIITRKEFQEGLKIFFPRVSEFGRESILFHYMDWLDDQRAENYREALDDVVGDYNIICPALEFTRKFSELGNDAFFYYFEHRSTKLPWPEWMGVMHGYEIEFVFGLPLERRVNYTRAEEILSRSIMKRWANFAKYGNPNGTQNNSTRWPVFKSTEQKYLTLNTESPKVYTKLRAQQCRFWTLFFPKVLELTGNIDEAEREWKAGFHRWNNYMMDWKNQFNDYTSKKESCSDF

Row | Structure (SMILES) | inhibition [1] | IC50 [2] [µM] | inhibition [3] | inhibition at 10 µM [4] [%]
1 | C=C[C@H]1[C@H](O[C@@H]2O[C@H](CO)[C@@H](O)[C@H](O)[C@H]2O)OC=C(C(=O)OC)[C@H]1C[C@H]1c2c(O)ccc3[nH]cc(c23)CCN1C | inactive | > 10 | inactive | 
2 | C[N+]1([O-])CCc2c[nH]c3ccc(O)c(c23)C1 (configuration not stated) | inactive | 1.4 | 41% | 27
3 | C=C[C@H]1[C@H](O[C@@H]2O[C@H](CO)[C@@H](O)[C@H](O)[C@H]2O)OC=C(C(=O)OC)[C@H]1C[C@@H]1c2c(O)ccc3[nH]cc(c23)CCN1C | inactive | > 10 | inactive | 
4 | C[N+]1=Cc2c(O)ccc3[nH]cc(c23)CC1 | inactive | 0.9 | 21% | 31
5 | CN1CCc2c[nH]c3ccc(O)c(c23)C1 | inactive | 1.4 | 18% | 22
6 | C=C[C@H]1[C@H](O[C@@H]2O[C@H](COC(=O)/C=C/c3ccc(OC)c(OC)c3)[C@@H](O)[C@H](O)[C@H]2O)OC=C(C(=O)OC)[C@H]1C[C@H]1c2c(O)ccc3[nH]cc(c23)CCN1C | inactive | > 10 | inactive | 
7 | C#CCN(C)Cc1ccccc1 [PARGYLINE] |  |  |  | 0.14
